Data published in US20230091047A1 (priority 2019, published 2023).

What was measured:
in vitro = type: cell-based; settings: human, HepG2 or HepG2.117 cells, 3-days incubation (unmarked values), ATPlite; mean value
In short: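 Luminescent ATP quantitation served as the viability endpoint following a 3- or 4-day incubation with test compounds.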

[1] = system: HBV (HepG2.117 cell line, inducibly HBV producing); assay: Anti-HBV activity: intracellular HBV DNA by real-time PCR in HepG2.117 cells after 3 days of treatment; type: cell-based, hepatitis B virus; settings: Hepatitis B virus, HepG2.117, 72 h, HepG2.117 cells, 3 days of treatment, intracellular HBV DNA by real-time PCR; mean value; read-out: EC50 (μM, mean value)
In short: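 Tet-off HepG2.117; HBV replication induced (no doxycycline); serial compound dilutions, 3 d; intracellular HBV DNA by real-time PCR, HBV-specific primers/probe.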

Structure (SMILES)	CC50 at 3 days (in vitro) [µM]	EC50 [1] [µM]
COc1ccc(CNc2nc3c(c(=O)[nH]2)CC(C)N(C(=O)c2ccc(Cl)c(Cl)c2)C3)cc1 (stereo not shown) [Compound C63, 7-(3,4-dichlorobenzoyl)-2-{[(4-methoxyphenyl)methyl]amino}-6-methyl-5,6,7,8-tetrahydropyrido[3,4-d]pyrimidin-4(3H)-one]	28.4	2.59
COc1ccc(CNc2nc3c(c(=O)[nH]2)C[C@@H](C)N(C(=O)c2ccc(Cl)c(Cl)c2)C3)cc1 [Compound C63A, (6R)-7-(3,4-dichlorobenzoyl)-2-{[(4-methoxyphenyl)methyl]amino}-6-methyl-5,6,7,8-tetrahydropyrido[3,4-d]pyrimidin-4(3H)-one]	30.4	3.58
COc1ccc(CNc2nc3c(c(=O)[nH]2)C[C@H](C)N(C(=O)c2ccc(Cl)c(Cl)c2)C3)cc1 [Compound C63B, (6S)-7-(3,4-dichlorobenzoyl)-2-{[(4-methoxyphenyl)methyl]amino}-6-methyl-5,6,7,8-tetrahydropyrido[3,4-d]pyrimidin-4(3H)-one]	35.3	1.63
COc1ccc(CNc2nc3c(c(=O)n2C2CCCCC2)CCN(C(=O)c2ccc(Cl)c(Cl)c2)C3)cc1 [Compound C64, 3-cyclohexyl-7-(3,4-dichlorobenzoyl)-2-{[(4-methoxyphenyl)methyl]amino}-5,6,7,8-tetrahydropyrido[3,4-d]pyrimidin-4(3H)-one]	> 50	8.91
COc1ccc(CNc2nc3c(c(=O)n2CC2CCOCC2)CCN(C(=O)c2ccc(Cl)c(Cl)c2)C3)cc1 [Compound C65, 7-(3,4-dichlorobenzoyl)-2-{[(4-methoxyphenyl)methyl]amino}-3-[(oxan-4-yl)methyl]-5,6,7,8-tetrahydropyrido[3,4-d]pyrimidin-4(3H)-one]	37.8	2.72
COc1ccc(CNc2nc3c(c(=O)n2C2CCN(S(C)(=O)=O)CC2)CCN(C(=O)c2ccc(Cl)c(Cl)c2)C3)cc1 [Compound C66, 7-(3,4-dichlorobenzoyl)-3-[1-(methanesulfonyl)piperidin-4-yl]-2-{[(4-methoxyphenyl)methyl]amino}-5,6,7,8-tetrahydropyrido[3,4-d]pyrimidin-4(3H)-one]	> 50	0.77
COc1ccc(CNc2nc3c(c(=O)n2CC(C)C)CCN(C(=O)c2ccc(Cl)c(Cl)c2)C3)cc1 [Compound C67, 7-(3,4-dichlorobenzoyl)-2-{[(4-methoxyphenyl)methyl]amino}-3-(2-methylpropyl)-5,6,7,8-tetrahydropyrido[3,4-d]pyrimidin-4(3H)-one]	> 50	9.51
COc1ccc(CNc2nc3c(c(=O)n2-c2cccnc2)CCN(C(=O)c2ccc(Cl)c(Cl)c2)C3)cc1 [Compound C68, 7-(3,4-dichlorobenzoyl)-2-{[(4-methoxyphenyl)methyl]amino}-3-(pyridin-3-yl)-5,6,7,8-tetrahydropyrido[3,4-d]pyrimidin-4(3H)-one]	22.4	0.66
COc1ccc(CNc2nc3c(c(=O)[nH]2)CCN(C(=O)c2ccc(Br)c(F)c2)C3)cc1 [Compound C69, 7-(4-bromo-3-fluorobenzoyl)-2-{[(4-methoxyphenyl)methyl]amino}-5,6,7,8-tetrahydropyrido[3,4-d]pyrimidin-4(3H)-one]	21	10
COc1ccc(CNc2nc3c(c(=O)n2C2CC2)CCN(C(=O)c2ccc(Cl)c(Cl)c2)C3)cc1 [Compound C70, 3-cyclopropyl-7-(3,4-dichlorobenzoyl)-2-{[(4-methoxyphenyl)methyl]amino}-5,6,7,8-tetrahydropyrido[3,4-d]pyrimidin-4(3H)-one]	23.1	10.8
CCCn1c(NCc2ccc(OC)cc2)nc2c(c1=O)CCN(C(=O)c1ccc(Cl)c(Cl)c1)C2 [Compound C71, 7-(3,4-dichlorobenzoyl)-2-{[(4-methoxyphenyl)methyl]amino}-3-propyl-5,6,7,8-tetrahydropyrido[3,4-d]pyrimidin-4(3H)-one]	> 50	7.04
COc1ccc(CNc2nc3c(c(=O)n2C(C)C)CCN(C(=O)c2ccc(Cl)c(Cl)c2)C3)cc1 [Compound C72, 7-(3,4-dichlorobenzoyl)-2-{[(4-methoxyphenyl)methyl]amino}-3-(propan-2-yl)-5,6,7,8-tetrahydropyrido[3,4-d]pyrimidin-4(3H)-one]	40	2.77
COc1ccc(CNc2nc3c(c(=O)n2C2CCCC2)CCN(C(=O)c2ccc(Cl)c(Cl)c2)C3)cc1 [Compound C73, 3-cyclopentyl-7-(3,4-dichlorobenzoyl)-2-{[(4-methoxyphenyl)methyl]amino}-5,6,7,8-tetrahydropyrido[3,4-d]pyrimidin-4(3H)-one]	> 50	9.37
CCOC(=O)c1cccc(-n2c(NCc3ccc(OC)cc3)nc3c(c2=O)CCN(C(=O)c2ccc(Cl)c(Cl)c2)C3)c1 [Compound C74, ethyl 3-[7-(3,4-dichlorobenzoyl)-2-{[(4-methoxyphenyl)methyl]amino}-4-oxo-5,6,7,8-tetrahydropyrido[3,4-d]pyrimidin-3(4H)-yl]benzoate]	> 50	1.43
COc1ccc(CNc2nc3c(c(=O)n2-c2cccc(C(=O)O)c2)CCN(C(=O)c2ccc(Cl)c(Cl)c2)C3)cc1 [Compound C75, 3-[7-(3,4-dichlorobenzoyl)-2-{[(4-methoxyphenyl)methyl]amino}-4-oxo-5,6,7,8-tetrahydropyrido[3,4-d]pyrimidin-3(4H)-yl]benzoic acid]	> 50	> 50
COc1ccc(Cn2c(N)nc3c(c2=O)CCN(C(=O)c2ccc(Cl)c(Cl)c2)C3)cc1 [Compound C76, 2-amino-7-(3,4-dichlorobenzoyl)-3-[(4-methoxyphenyl)methyl]-5,6,7,8-tetrahydropyrido[3,4-d]pyrimidin-4(3H)-one]	7.1	9.63
COc1ccc(CNc2nc3c(c(=O)n2-c2ccc(F)c(C#N)c2)CCN(C(=O)c2ccc(Cl)c(Cl)c2)C3)cc1 [Compound C77, 5-[7-(3,4-dichlorobenzoyl)-2-{[(4-methoxyphenyl)methyl]amino}-4-oxo-5,6,7,8-tetrahydropyrido[3,4-d]pyrimidin-3(4H)-yl]-2-fluorobenzonitrile]	> 50	1.58
COc1ccc(CNc2nc3c(c(=O)n2-c2ccccn2)CCN(C(=O)c2ccc(Cl)c(Cl)c2)C3)cc1 [Compound C78, 7-(3,4-dichlorobenzoyl)-2-{[(4-methoxyphenyl)methyl]amino}-3-(pyridin-2-yl)-5,6,7,8-tetrahydropyrido[3,4-d]pyrimidin-4(3H)-one]	41.8	2.11
COc1ccc(CNc2nc3c(c(=O)[nH]2)CCN(C(=O)c2cc4ccc(Cl)cc4[nH]2)C3)cc1 [Compound C79, 7-(6-chloro-1H-indole-2-carbonyl)-2-{[(4-methoxyphenyl)methyl]amino}-5,6,7,8-tetrahydropyrido[3,4-d]pyrimidin-4(3H)-one]	37.5	2.32
COc1ccc(CNc2nc3c(c(=O)[nH]2)CCN(C(=O)c2ccc(Br)c(Br)c2)C3)cc1 [Compound C80, 7-(3,4-dibromobenzoyl)-2-{[(4-methoxyphenyl)methyl]amino}-5,6,7,8-tetrahydropyrido[3,4-d]pyrimidin-4(3H)-one]	> 50	2.02
COc1ccc(CNc2nc3c(c(=O)[nH]2)CCN(C(=O)c2ccc4occc4c2)C3)cc1 [Compound C81, 7-(1-benzofuran-5-carbonyl)-2-{[(4-methoxyphenyl)methyl]amino}-5,6,7,8-tetrahydropyrido[3,4-d]pyrimidin-4(3H)-one]	> 50	4.49
COc1ccc(CNc2nc3c(c(=O)[nH]2)CCN(C(=O)c2ccc(C#N)c(Cl)c2)C3)cc1 [Compound C82, 2-chloro-4-[2-{[(4-methoxyphenyl)methyl]amino}-4-oxo-4,5,6,8-tetrahydropyrido[3,4-d]pyrimidine-7(3H)-carbonyl]benzonitrile]	> 50	23.4
COc1ccc(CNc2nc3c(c(=O)n2C2CCCN(S(C)(=O)=O)C2)CCN(C(=O)c2ccc(Cl)c(Cl)c2)C3)cc1 (stereo not shown) [Compound C83, 7-(3,4-dichlorobenzoyl)-3-[1-(methanesulfonyl)piperidin-3-yl]-2-{[(4-methoxyphenyl)methyl]amino}-5,6,7,8-tetrahydropyrido[3,4-d]pyrimidin-4(3H)-one]	> 50	1.44
COc1ccc(CNc2nc3c(c(=O)n2-c2ccc(S(C)(=O)=O)cc2)CCN(C(=O)c2ccc(Cl)c(Cl)c2)C3)cc1 [Compound C84, 7-(3,4-dichlorobenzoyl)-3-[4-(methanesulfonyl)phenyl]-2-{[(4-methoxyphenyl)methyl]amino}-5,6,7,8-tetrahydropyrido[3,4-d]pyrimidin-4(3H)-one]	> 50	0.57
CC(C)Nc1nc2c(c(=O)n1-c1ccc(S(C)(=O)=O)cc1)CCN(C(=O)c1ccc(Cl)c(Cl)c1)C2 [Compound C85, 7-(3,4-dichlorobenzoyl)-3-[4-(methanesulfonyl)phenyl]-2-[(propan-2-yl)amino]-5,6,7,8-tetrahydropyrido[3,4-d]pyrimidin-4(3H)-one]	> 50	0.85
COc1ccccc1-n1c(N[C@@H](C)C(F)(F)F)nc2c(c1=O)CCN(C(=O)c1ccc(Cl)c(Cl)c1)C2 [Compound C86, 7-(3,4-dichlorobenzoyl)-3-(2-methoxyphenyl)-2-{[(2S)-1,1,1-trifluoropropan-2-yl]amino}-5,6,7,8-tetrahydropyrido[3,4-d]pyrimidin-4(3H)-one]	25.2	1.44
